Experiments:
[1] = tested on: adult zebrafish; assay: Adult zebrafish caudal fin regeneration model; type: in vivo, Danio rerio; conditions: 15 μM in tank water, 26 h regeneration at 32° C., vs DMSO
From the text: We next tested the regenerative capabilities of zebrafish, which have a robust capacity to replace and renew organs and tissues derived from all three germ layers. Regenerating fin joints are reported to constitute a pre-osteoblast niche from which OSX-expressing (Sp7+) osteoblasts radiate de novo (Ando et al., 2017). Simultaneously, osteoblasts and osteogenic hypertrophic chondrocytes in both early and later stages of differentiation express collagen10 (col10a1) (Huycke et al., 2012).
Animals studies were performed according to protocols approved by the WCMC IACUC. Wildtype (AB/TU hybrid) zebrafish were maintained at 28.5° C. Larval fish were treated from 7 dpf to 8 dpf in tank water with DMSO or with a 24-hour pulse of 15 μM DIPQUO or inert analog BT344 or BT345, and were fixed at 9 dpf in 4% paraformaldehyde overnight rocking at 4° C. Fixed larvae were washed in PBS-0.1% Tween-20 (PBST), followed by 50% ethanol/50% PBST. Larvae were transferred to staining solution (66.5% ethanol, 100 mM MgCl2, 0.02% alizarin red) and incubated for 40 hours, rocking at room temperature in the dark. Larvae were washed in H2O+0.1% Tween-20, and excess stain removed by bleaching for approximately 10 minutes in the dark with a 1:1 mixture of 3% […] and 2% KOH. […] Images were acquired on a Zeiss LSM 800 confocal microscope and Sp7^+/col10a1^+ cells quantified using ImageJ.

[2] = tested on: C2C12 cells; assay: qRT-PCR of osteoblast differentiation transcripts in C2C12 cells; type: cell-based, mouse; conditions: C2C12, 10 μM
Procedure: For quantitative RT-PCR analysis of gene expression in C2C12 cultures, cells were treated for 2 days with 10 μM DIPQUO and harvested into Trizol reagent (Invitrogen). One microgram of RNA was reverse transcribed using the VILO-RT kit (Invitrogen) to generate cDNA, which was diluted 1:25 in RNase-free H2O for qPCR with Sybr green using the Roche 480 II LightCycler and the 2^−ΔΔCT method (Livak and Schmittgen, 2001). For analysis of osteoclast gene expression, RAW 264.7 cells were treated with DMSO, 50 ng/ml RANKL, or 10 μM DIPQUO for 4 days, then harvested into Trizol reagent and processed as above. Mouse qPCR primers are as follows. Runx2: F([…]) (SEQ ID NO:1); R([…]) (SEQ ID NO:2); Dlx5: F([…]) (SEQ ID NO:3); R([…]) (SEQ ID NO:4); Osterix: F([…]) (SEQ ID NO:5); R([…]) (SEQ ID NO:6); ALP: F([…]) (SEQ ID NO:7); R([…]) (SEQ ID NO:8); Osteocalcin: F([…]) (SEQ ID NO:9); R([…]) (SEQ ID NO:10); Osteoactivin: F([…]) (SEQ ID NO:11); R([…]) (SEQ ID NO:12); CTSK: F([…]) (SEQ ID NO:13); R([…]) (SEQ ID NO:14); MMP9: F([…]) (SEQ ID NO:15); R([…]) (SEQ ID NO:16); Gapdh F([…]) (SEQ ID NO:17); R([…]) (SEQ ID NO:18). RNA-seq studies were carried out with the assistance of the Weill Cornell Genomics Core Facility, using the Illumina HiSeq4000 next-generation sequencer to generate reads from cDNA libraries generated from three biological replicates of day 2 DMSO- or DIPQUO-treated C2C12 cells. Gene sets were clustered by biological/disease function using Ingenuity Pathway Analysis (Qiagen Bioinformatics). Heatmaps with hierarchical clustering were generated in R using the CRAN package for a subset of genes involved in bone morphogenesis. Following normalization of the RNA Sequencing counts in DeSeq, z-scores were computed across samples within each gene for use in the heatmap. The accession number for the sequencing data reported in this paper is NCBI GEO: GSE125052.

[3] = tested on: alkaline phosphatase (ALP); assay: ALP expression staining in C2C12 cells; type: cell-based, mouse; conditions: C2C12, 2 days, 10 μM
Procedure: C2C12 cells were treated for 2 days with 10 μM DIPQUO or structural analogs, 1 ng/ml rhBMP4, or with inhibitors as noted in figure legends, and then fixed briefly in 70% acetone/10% formaldehyde/20% citrate. Staining was achieved using the leukocyte alkaline phosphatase kit (Sigma 86R-1KT) according to the manufacturer's instructions. Expression of ALP was confirmed and quantified by flow cytometric analysis, using an Accuri C6 flow cytometer. Briefly, control- or DIPQUO-treated C2C12 cells were detached and harvested on day 2 using PBS-based enzyme-free cell detachment solution (ThermoFisher). 2×10^5 cells were incubated on ice for 30 minutes with 10 μl APC-conjugated ALPL antibody (R&D Systems), and washed in ice-cold PBS before analysis. Live cells were gated and analyzed in CFlow Plus software and then data was converted to FlowJo to achieve publication-level resolution. For siRNA experiments, gene-specific oligonucleotides were obtained for mouse p38-alpha (Cell Signaling) and p38-beta (Santa Cruz). Signal Silence scramble siRNA control oligonucleotide was purchased from Cell Signaling. C2C12 cells at 70% confluency were transfected in 12-well plates using Lipofectamine RNAiMax reagent (Invitrogen) according to manufacturer's instructions. Transfected cells were treated 24 hours later with DMSO or 10 μM DIPQUO, and siRNA transfection was repeated after 48 hours without changing culture media. After an additional 3 days, cells were either fixed and stained for ALP expression or analyzed for ALP activity using the AttoPhos Substrate kit. Hemagglutinin and FLAG epitope-tagged MKK3 (pMT2-HA-MKK3) and MKK6 (pcDNA3-FLAG-MKK6) constructs were obtained from Addgene and transfected into C2C12 cells using Lipofectamine LTX with Plus Reagent (ThermoFisher) according to manufacturer's instructions and cell extracts analyzed for protein expression and activity as described below.

Cc1cc(C)c2[nH]c(=O)c(-c3[nH]cnc3-c3ccccc3)cc2c1 [RU-0226606, 6,8-dimethyl-3-(4-phenyl-1H-imidazol-5-yl)quinolin-2(1H)-one]
number of Sp7+/Col10a1+ cells emanating from new fin ray joints [1]: significantly increased | changes in expression of OCN and Osteoactivin (qRT-PCR) ([2]; 2 days, compared with BMP-treated positive controls): much higher with DIPQUO treatment than in BMP-treated positive controls | expression of Runx2 and Osterix (qRT-PCR) ([2]; 2 days, vs DMSO): significant upregulation | expression of ALP and OCN (qRT-PCR) ([2]; day 2, vs DMSO): substantially increased by day 2 | ALP expression by staining [3]: rapidly stimulate ALP expression within 2 days

— patent US11478466B2, “Small molecule promoting osteoblast differentiation” (Cornell University, priority 2019, dated 2022)
